Measurements reported in US6737383B1, “Herbicidal oxadiazolidines” (priority 1999, dated 2004).

What was measured:
sandbur = experiment: Test D sandbur; assay type: in vivo, Cenchrus echinatus; conditions: Preemergence, 0 to 100 scale
Summary of the method: (§1)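 Herbicide screen in the greenhouse. A non-phytotoxic solvent mixture with surfactant carried the test chemical; in pre-emergence tests it went onto the soil of pots seeded no more than a day earlier. Injury was scored by eye 14 to 21 days after application, 0 to 100.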

Johnson grass = experiment: Test D Johnson grass; assay type: in vivo, Sorghum halepense; conditions: Preemergence, 0 to 100 scale
Summary of the method: as §1

winter barley = experiment: Test E winter barley; assay type: in vivo, Hordeum vulgare; conditions: Preemergence
winter wheat [1] = experiment: Test E winter wheat; assay type: in vivo, Triticum aestivum; conditions: Postemergence
Summary of the method: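 Postemergence: spray at 1–4 leaf stage, soil 60:40 sandy loam:potting mix; solvent + surfactant formulation; greenhouse 21–28 d; visual injury vs untreated controls.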

crabgrass = experiment: Test B pre/postemergence crabgrass; assay type: in vivo, Digitaria sanguinalis
Summary of the method: (§2)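 Response is a visual 0-to-10 score relative to untreated plants, where 0 means no effect and 10 means complete control, taken twelve to sixteen days after application. Treatments went onto soil at planting and onto foliage of 1- to 4-leaf plants, using a surfactant-containing non-phytotoxic solvent.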

cocklebur = experiment: Test B pre/postemergence cocklebur; assay type: in vivo, Xanthium strumarium
Summary of the method: as §2

blackgrass = experiment: Test E blackgrass; assay type: in vivo, Alopecurus myosuroides; conditions: Preemergence
winter wheat [2] = experiment: Test E winter wheat; assay type: in vivo, Triticum aestivum; conditions: Preemergence
corn = experiment: Test B pre/postemergence corn; assay type: in vivo, Zea mays
Summary of the method: as §2

wild oat = experiment: Test E wild oat; assay type: in vivo, Avena fatua; conditions: Preemergence
Italian ryegrass = experiment: Test E Italian ryegrass; assay type: in vivo, Lolium multiflorum; conditions: Preemergence
green foxtail = experiment: Test E green foxtail; assay type: in vivo, Setaria viridis; conditions: Preemergence
Alexandergrass = experiment: Test D Alexandergrass; assay type: in vivo, Brachiaria plantaginea; conditions: Preemergence, 0 to 100 scale
Summary of the method: as §1

goosegrass = experiment: Test D goosegrass; assay type: in vivo, Eleusine indica; conditions: Preemergence, 0 to 100 scale
Summary of the method: as §1

tall mallow = experiment: Test D tall mallow; assay type: in vivo, Malva sylvestris; conditions: Preemergence, 0 to 100 scale
Summary of the method: as §1

surinam grass = experiment: Test B pre/postemergence surinam grass; assay type: in vivo, Brachiaria decumbens
Summary of the method: as §2

[3] = Rate 16 g/ha, 0 no injury, 100 complete control
[4] = Rate 32 g/ha, 0 no injury, 100 complete control
[5] = Rate 64 g/ha, 0 no injury, 100 complete control
[6] = Rate 62 g/ha, 0 to 100 scale, 0 no effect, 100 complete control
[7] = Rate 125 g/ha, 0 to 100 scale (0 no effect, 100 complete control)
[8] = Postemergence, Rate 125 g/ha, scale of 0 to 10 where 0 is no effect and 10 is complete control
[9] = Postemergence, Rate 250 g/ha, scale 0 to 10, 0 no effect, 10 complete control
[10] = Preemergence, Rate 62 g/ha, scale 0 to 10 (0 no effect, 10 complete control)
[11] = Preemergence, Rate 125 g/ha, scale 0 to 10 (0 no effect, 10 complete control)
[12] = Preemergence, Rate 250 g/ha, scale of 0 to 10 where 0 is no effect and 10 is complete control
[13] = Preemergence, Rate 500 g/ha, scale 0 to 10 (0 no effect, 10 complete control)
[14] = Rate 62 g/ha, Postemergence, scale of 0 to 10 where 0 is no effect and 10 is complete control
[15] = Rate 500 g/ha, Postemergence, scale 0 to 10, 0 no effect, 10 complete control

How did the “Plant response rating, Sandbur” value (sandbur; [3]) turn out when `CC(C)N(C(=O)n1oc(=O)n(C2CCCCC2)c1=O)c1ccccc1` [Compound 112] was run?
The value was 0.

And the “Plant response rating, Sandbur” value (sandbur; [4])?
Its value is 0.

And the “Sandbur plant response rating” value (sandbur; [5])?
The value was 0.

And the “Plant response rating, Sandbur” value (sandbur; Rate 250 g/ha)?
Its value is 0.

What about the “Plant response rating, Sandbur” value (sandbur; Rate 500 g/ha) of the same compound?
Its value is 100.

What about the “Plant response rating, Johnsongrass” value (Johnson grass; [3]) of the same compound?
Its value is 0.

And the “Plant response rating, Johnsongrass” value (Johnson grass; [4])?
Its value is 0.

And the “Plant response rating, Johnsongrass” value (Johnson grass; [5])?
The value was 0.

What about the “Plant response rating, Johnsongrass” value (Johnson grass; Rate 250 g/ha) of the same compound?
Its value is 0.

And the “Plant response rating, Johnsongrass” value (Johnson grass; Rate 500 g/ha)?
Its value is 50.

What about the “Plant response rating, Barley (winter)” value (winter barley; [6]) of the same compound?
Its value is 0.

What about the “Plant response rating, Barley (winter)” value (winter barley; [7]) of the same compound?
Its value is 10.

And the “Plant response rating, Barley (winter)” value (winter barley; Rate 250 g/ha, 0 to 100 scale)?
The value was 10.

And the “Plant response rating, Wheat (winter)” value (winter wheat [1]; Rate 62 g/ha, 0 to 100 scale)?
The value was 0.

And the “Plant response rating, Wheat (winter)” value (winter wheat [1]; Rate 125 g/ha, 0 to 100 scale)?
Its value is 0.

And the “Plant response rating, Wheat (winter)” value (winter wheat [1]; Rate 250 g/ha, 0 to 100 scale (0 no effect, 100 complete control))?
The value was 10.

What about the “Crabgrass plant response rating” value (crabgrass; [8]) of the same compound?
The value was 4.

And the “Crabgrass plant response rating” value (crabgrass; [9])?
Its value is 4.

And the “Crabgrass plant response rating” value (crabgrass; [10])?
Its value is 5.

What about the “Plant response rating, Crabgrass” value (crabgrass; [11]) of the same compound?
Its value is 6.

What about the “Plant response rating, Crabgrass” value (crabgrass; [12]) of the same compound?
Its value is 10.

What about the “Crabgrass plant response rating” value (crabgrass; [13]) of the same compound?
The value was 10.

And the “Crabgrass plant response rating” value (crabgrass; [14])?
The value was 0.

And the “Crabgrass plant response rating” value (crabgrass; [15])?
Its value is 9.

And the “Cocklebur plant response rating” value (cocklebur; [8])?
The value was 1.

What about the “Cocklebur plant response rating” value (cocklebur; [9]) of the same compound?
The value was 2.

What about the “Cocklebur plant response rating” value (cocklebur; [10]) of the same compound?
Its value is 0.

And the “Plant response rating, Cocklebur” value (cocklebur; [11])?
The value was 0.

What about the “Plant response rating, Cocklebur” value (cocklebur; [12]) of the same compound?
Its value is 0.

What about the “Cocklebur plant response rating” value (cocklebur; [13]) of the same compound?
Its value is 0.

And the “Cocklebur plant response rating” value (cocklebur; [14])?
The value was 0.

And the “Cocklebur plant response rating” value (cocklebur; [15])?
Its value is 2.

And the “Plant response rating, Blackgrass” value (blackgrass; [6])?
Its value is 10.

What about the “Plant response rating, Blackgrass” value (blackgrass; [7]) of the same compound?
Its value is 20.

What about the “Plant response rating, Blackgrass” value (blackgrass; Rate 250 g/ha, 0 to 100 scale) of the same compound?
Its value is 50.

And the “Plant response rating, Wheat (winter)” value (winter wheat [2]; [6])?
The value was 0.

And the “Plant response rating, Wheat (winter)” value (winter wheat [2]; [7])?
The value was 0.

What about the “Plant response rating, Wheat (winter)” value (winter wheat [2]; Rate 250 g/ha, 0 to 100 scale) of the same compound?
The value was 0.

And the “Corn plant response rating” value (corn; [8])?
Its value is 0.

What about the “Corn plant response rating” value (corn; [9]) of the same compound?
The value was 0.

And the “Corn plant response rating” value (corn; [10])?
The value was 0.

What about the “Plant response rating, Corn” value (corn; [11]) of the same compound?
Its value is 0.

What about the “Plant response rating, Corn” value (corn; [12]) of the same compound?
Its value is 0.

And the “Corn plant response rating” value (corn; [13])?
Its value is 2.

And the “Corn plant response rating” value (corn; [14])?
Its value is 0.

What about the “Corn plant response rating” value (corn; [15]) of the same compound?
Its value is 0.

What about the “Plant response rating, Wild oat” value (wild oat; [6]) of the same compound?
The value was 0.

And the “Plant response rating, Wild oat” value (wild oat; [7])?
Its value is 0.

And the “Plant response rating, I. Ryegrass” value (Italian ryegrass; [6])?
The value was 0.

And the “Plant response rating, I. Ryegrass” value (Italian ryegrass; [7])?
The value was 0.

What about the “Plant response rating, I. Ryegrass” value (Italian ryegrass; Rate 250 g/ha, 0 to 100 scale) of the same compound?
Its value is 20.

And the “Plant response rating, Green foxtail” value (green foxtail; [6])?
The value was 10.

What about the “Plant response rating, Green foxtail” value (green foxtail; [7]) of the same compound?
Its value is 20.

What about the “Plant response rating, Green foxtail” value (green foxtail; Rate 250 g/ha, 0 to 100 scale) of the same compound?
The value was 50.

And the “Plant response rating, Alexandergrass” value (Alexandergrass; [3])?
Its value is 0.

And the “Plant response rating, Alexandergrass” value (Alexandergrass; [4])?
The value was 0.

And the “Plant response rating, Alexandergrass” value (Alexandergrass; [5])?
Its value is 0.

What about the “Plant response rating, Alexandergrass” value (Alexandergrass; Rate 250 g/ha) of the same compound?
Its value is 80.

And the “Plant response rating, Alexandergrass” value (Alexandergrass; Rate 500 g/ha)?
The value was 100.

And the “Plant response rating, Goosegrass” value (goosegrass; [3])?
Its value is 40.

What about the “Plant response rating, Goosegrass” value (goosegrass; [4]) of the same compound?
The value was 40.

And the “Plant response rating, Goosegrass” value (goosegrass; [5])?
Its value is 85.

What about the “Plant response rating, Goosegrass” value (goosegrass; Rate 250 g/ha) of the same compound?
Its value is 100.

What about the “Plant response rating, Goosegrass” value (goosegrass; Rate 500 g/ha) of the same compound?
Its value is 100.

What about the “Plant response rating, Tall Mallow” value (tall mallow; [3]) of the same compound?
Its value is 0.

And the “Plant response rating, Tall Mallow” value (tall mallow; [4])?
Its value is 0.

And the “Tall Mallow plant response rating” value (tall mallow; [5])?
Its value is 0.

And the “Plant response rating, Tall Mallow” value (tall mallow; Rate 250 g/ha)?
The value was 0.

And the “Plant response rating, Tall Mallow” value (tall mallow; Rate 500 g/ha)?
The value was 20.

And the “B. signalgrass plant response rating” value (surinam grass; Postemergence, Rate 62 g/ha, scale 0 to 10, 0 is no effect, 10 is complete control)?
The value was 0.

What about the “B. signalgrass plant response rating” value (surinam grass; [9]) of the same compound?
Its value is 0.

And the “B. signalgrass plant response rating” value (surinam grass; [10])?
Its value is 0.

And the “Plant response rating, B. signalgrass” value (surinam grass; [11])?
Its value is 0.

And the “Plant response rating, B. signalgrass” value (surinam grass; [12])?
Its value is 3.

And the “B. signalgrass plant response rating” value (surinam grass; [13])?
The value was 5.

And the “B. signalgrass plant response rating” value (surinam grass; Rate 125 g/ha, Postemergence, scale 0 to 10, 0 no effect, 10 complete control)?
The value was 0.

What about the “B. signalgrass plant response rating” value (surinam grass; Rate 500 g/ha, Postemergence, scale of 0 to 10 where 0 is no effect and 10 is complete control) of the same compound?
Its value is 4.
